Earlier results as cited in patent US20140171511A1, “Cough Reducing Product” (priority 2011, published 2014).

Columns and labels:
[1] = relative to capsaicin, used to calculate equivalent dose
[2] = inhaled capsaicin as research tool, past 2 decades
[3] = test system: IBS and gut pain sensitivity; conditions: regular intake of capsaicin powder

| SMILES | Typical equivalent strength [1] | serious adverse reactions [2] | IBS and gut pain sensitivity [3] |
| --- | --- | --- | --- |
| COc1cc(CNC(=O)CCCC/C=C/C(C)C)ccc1O [Capsaicin, 8-Methyl-N-vanillyl-trans-6-nonenamide] | 100% | no serious adverse reactions reported | improvement |
| COc1cc(CNC(=O)CCCCCC(C)C)ccc1O [Nordihydrocapsaicin] | 10% | – | – |
